Data published in article PMC11992225, “Antibacterial compounds against non-growing and intracellular bacteria” (npj Antimicrobials and Resistance, 2025).
≈ marks a conversion by molar mass, not a printed value.

Each compound was assayed on intracellular S. flexneri 5a M90T in TC7 cells (assay: microbe, parasite or virus in culture). Conditions: Shigella flexneri, TC7, 14 h.
Assay type: cell-based, Shigella flexneri

Compared with `NC1CCN(c2nc3c(cc2F)c(=O)c(C(=O)O)cn3-c2ccc(F)cc2F)C1` (centres unmarked) [Tosufloxacin], `NC1CCN(c2c(F)cc3c(=O)c(C(=O)O)cn(C4CC4)c3c2Cl)C1` (centres unmarked) [Clinafloxacin] is 2.5-fold lower in IC50: 25 nM for the first, 10 nM for the second.

In the case of `COc1c(N2CCNC(C)C2)c(F)cc2c(=O)c(C(=O)O)cn(C3CC3)c12` (centres unmarked) [Gatifloxacin], the IC50 is reported as 34 nM.

Same assay, conditions: TC7 cells infected with GFP-expressing S. flexneri, 14 h treatment, 0.25 x MIC

With `NC1CCN(c2c(F)cc3c(=O)c(C(=O)O)cn(C4CC4)c3c2Cl)C1` (centres unmarked) [Clinafloxacin] the “Fluorescence intensity (RFU), Mean, 0.25 x MIC” value was 7691.46 RFU.

Same assay, conditions: TC7 cells infected with GFP-expressing S. flexneri, 14 h treatment, 0.5 x MIC

Going from `COc1c(N2CCNC(C)C2)c(F)cc2c(=O)c(C(=O)O)cn(C3CC3)c12` (centres unmarked) [Gatifloxacin] to `NC1CCN(c2c(F)cc3c(=O)c(C(=O)O)cn(C4CC4)c3c2Cl)C1` (centres unmarked) [Clinafloxacin], the “Fluorescence intensity (RFU), Mean, 0.5 x MIC” value falls from 7621.42 RFU to 5544.33 RFU.

Same assay, conditions: TC7 cells infected with GFP-expressing S. flexneri, 14 h treatment, 2 x MIC

Going from `N[C@@H]1CN(c2c(F)cc3c(=O)c(C(=O)O)cn([C@@H]4C[C@@H]4F)c3c2Cl)CC12CC2` [Sitafloxacin] to `NC1CCN(c2c(F)cc3c(=O)c(C(=O)O)cn(C4CC4)c3c2Cl)C1` (centres unmarked) [Clinafloxacin], the “Fluorescence intensity (RFU), Mean, 2 x MIC” value falls from 4007.53 RFU to 3160.53 RFU.

Going from `NC1CCN(c2nc3c(cc2F)c(=O)c(C(=O)O)cn3-c2ccc(F)cc2F)C1` (centres unmarked) [Tosufloxacin] to `COc1c(N2CCNC(C)C2)c(F)cc2c(=O)c(C(=O)O)cn(C3CC3)c12` (centres unmarked) [Gatifloxacin], the “Fluorescence intensity (RFU), Mean, 2 x MIC” value falls from 4963.31 RFU to 3709.33 RFU.

Same assay, conditions: TC7 cells infected with GFP-expressing S. flexneri, 14 h treatment, 4 x MIC

First: N[C@@H]1CN(c2c(F)cc3c(=O)c(C(=O)O)cn([C@@H]4C[C@@H]4F)c3c2Cl)CC12CC2 [Sitafloxacin]
Second: NC1CCN(c2c(F)cc3c(=O)c(C(=O)O)cn(C4CC4)c3c2Cl)C1 (centres unmarked) [Clinafloxacin]
The “Fluorescence intensity (RFU), Mean, 4 x MIC” value of the first is higher: 3422.83 RFU for the first, 3034.56 RFU for the second.

First: NC1CCN(c2nc3c(cc2F)c(=O)c(C(=O)O)cn3-c2ccc(F)cc2F)C1 (centres unmarked) [Tosufloxacin]
Second: COc1c(N2CCNC(C)C2)c(F)cc2c(=O)c(C(=O)O)cn(C3CC3)c12 (centres unmarked) [Gatifloxacin]
The “Fluorescence intensity (RFU), Mean, 4 x MIC” value of the first is higher: 3475.06 RFU for the first, 3006.58 RFU for the second.

Same assay, conditions: TC7 cells infected with GFP-expressing S. flexneri, 14 h treatment, 8 x MIC

Compared with `N[C@@H]1CN(c2c(F)cc3c(=O)c(C(=O)O)cn([C@@H]4C[C@@H]4F)c3c2Cl)CC12CC2` [Sitafloxacin], `NC1CCN(c2c(F)cc3c(=O)c(C(=O)O)cn(C4CC4)c3c2Cl)C1` (centres unmarked) [Clinafloxacin] is lower in “Fluorescence intensity (RFU), Mean, 8 x MIC” value: 3200.25 RFU for the first, 2732.08 RFU for the second.

Compared with `NC1CCN(c2nc3c(cc2F)c(=O)c(C(=O)O)cn3-c2ccc(F)cc2F)C1` (centres unmarked) [Tosufloxacin], `COc1c(N2CCNC(C)C2)c(F)cc2c(=O)c(C(=O)O)cn(C3CC3)c12` (centres unmarked) [Gatifloxacin] is lower in “Fluorescence intensity (RFU), Mean, 8 x MIC” value: 3341.83 RFU for the first, 2924.83 RFU for the second.

Same assay, conditions: TC7 cells infected with GFP-expressing S. flexneri, 14 h treatment, 16 x MIC

Going from `N[C@@H]1CN(c2c(F)cc3c(=O)c(C(=O)O)cn([C@@H]4C[C@@H]4F)c3c2Cl)CC12CC2` [Sitafloxacin] to `NC1CCN(c2c(F)cc3c(=O)c(C(=O)O)cn(C4CC4)c3c2Cl)C1` (centres unmarked) [Clinafloxacin], the “Fluorescence intensity (RFU), Mean, 16 x MIC” value falls from 2414.89 RFU to 2021.17 RFU.

Going from `NC1CCN(c2nc3c(cc2F)c(=O)c(C(=O)O)cn3-c2ccc(F)cc2F)C1` (centres unmarked) [Tosufloxacin] to `COc1c(N2CCNC(C)C2)c(F)cc2c(=O)c(C(=O)O)cn(C3CC3)c12` (centres unmarked) [Gatifloxacin], the “Fluorescence intensity (RFU), Mean, 16 x MIC” value falls from 2905.56 RFU to 2191.44 RFU.

Same assay, conditions: TC7 cells infected with GFP-expressing S. flexneri, 14 h treatment, 32 x MIC

First: N[C@@H]1CN(c2c(F)cc3c(=O)c(C(=O)O)cn([C@@H]4C[C@@H]4F)c3c2Cl)CC12CC2 [Sitafloxacin]
Second: NC1CCN(c2c(F)cc3c(=O)c(C(=O)O)cn(C4CC4)c3c2Cl)C1 (centres unmarked) [Clinafloxacin]
The “Fluorescence intensity (RFU), Mean, 32 x MIC” value of the first is higher: 2083.61 RFU for the first, 1621.75 RFU for the second.

First: NC1CCN(c2nc3c(cc2F)c(=O)c(C(=O)O)cn3-c2ccc(F)cc2F)C1 (centres unmarked) [Tosufloxacin]
Second: COc1c(N2CCNC(C)C2)c(F)cc2c(=O)c(C(=O)O)cn(C3CC3)c12 (centres unmarked) [Gatifloxacin]
The “Fluorescence intensity (RFU), Mean, 32 x MIC” value of the first is higher: 2463.67 RFU for the first, 1768.58 RFU for the second.

Same assay, conditions: TC7 cells infected with GFP-expressing S. flexneri, 14 h treatment, MIC

Compared with `N[C@@H]1CN(c2c(F)cc3c(=O)c(C(=O)O)cn([C@@H]4C[C@@H]4F)c3c2Cl)CC12CC2` [Sitafloxacin], `NC1CCN(c2c(F)cc3c(=O)c(C(=O)O)cn(C4CC4)c3c2Cl)C1` (centres unmarked) [Clinafloxacin] is lower in “Fluorescence intensity (RFU), Mean, MIC” value: 5217.75 RFU for the first, 4423.92 RFU for the second.

First: NC1CCN(c2nc3c(cc2F)c(=O)c(C(=O)O)cn3-c2ccc(F)cc2F)C1 (centres unmarked) [Tosufloxacin]
Second: COc1c(N2CCNC(C)C2)c(F)cc2c(=O)c(C(=O)O)cn(C3CC3)c12 (centres unmarked) [Gatifloxacin]
The “Fluorescence intensity (RFU), Mean, MIC” value of the first is higher: 6769 RFU for the first, 5214.92 RFU for the second.

Same assay, conditions: intracellular S. flexneri in TC7 cells, GFP fluorescence after 14 h treatment; read-out: IC50

With `N[C@@H]1CN(c2c(F)cc3c(=O)c(C(=O)O)cn([C@@H]4C[C@@H]4F)c3c2Cl)CC12CC2` [Sitafloxacin] the IC50 was 25 nM.

The compounds below were run on non-growing UPEC CFT073 (assay: Dilution-regrowth assay (screen, hit validation, dose-response) on stationary-phase UPEC). Conditions: E. coli, LPM pH 5.5; regrowth delay of non-growing bacteria, 24 h treatment, OD600 6 h after 2500-fold dilution; read-out: EC50.
Assay type: cell-based, Escherichia coli
Method in brief: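 Regrowth (OD600 after 6 h, 37 °C) of diluted non-growing CFT073, following 24 h compound treatment of 24 h stationary cultures, defines activity relative to untreated control. Screen at 20 µM, validation at 20, 10, 5 µM (duplicates), dose–response in three biological replicates fitted by five-parameter logistic.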

Work on `N[C@@H]1CN(c2c(F)cc3c(=O)c(C(=O)O)cn([C@@H]4C[C@@H]4F)c3c2Cl)CC12CC2` [Sitafloxacin] yielded an EC50 of 10800 nM.

Same assay, conditions: E. coli, pH 7.4; regrowth delay of non-growing bacteria, 1:4 CA-MHB, 24 h treatment, OD600 6 h after 2500-fold dilution; read-out: EC50

Compound `N[C@@H]1CN(c2c(F)cc3c(=O)c(C(=O)O)cn([C@@H]4C[C@@H]4F)c3c2Cl)CC12CC2` [Sitafloxacin] has an EC50 of 187 nM.

Same assay, conditions: Escherichia coli; E. coli, LPM pH 5.5; regrowth delay of non-growing bacteria, 24 h treatment, OD600 6 h after 2500-fold dilution; read-out: EC50

With `NC1CCN(c2nc3c(cc2F)c(=O)c(C(=O)O)cn3-c2ccc(F)cc2F)C1` (centres unmarked) [Tosufloxacin] the EC50 was 10300 nM.

Same assay, conditions: Escherichia coli; E. coli, pH 7.4; regrowth delay of non-growing bacteria, 1:4 CA-MHB, 24 h treatment, OD600 6 h after 2500-fold dilution; read-out: EC50

`NC1CCN(c2nc3c(cc2F)c(=O)c(C(=O)O)cn3-c2ccc(F)cc2F)C1` (centres unmarked) [Tosufloxacin] and `NC1CCN(c2c(F)cc3c(=O)c(C(=O)O)cn(C4CC4)c3c2Cl)C1` (centres unmarked) [Clinafloxacin] are within 1.5-fold of each other in EC50: 753 nM for the first, 906 nM for the second.

In the case of `COc1c(N2CCNC(C)C2)c(F)cc2c(=O)c(C(=O)O)cn(C3CC3)c12` (centres unmarked) [Gatifloxacin], the EC50 is reported as 709 nM.

Each compound was assayed on S. flexneri 5a M90T (assay: MIC in tryptic soy broth, S. flexneri). Conditions: S. flexneri; extracellular bacteria in TSB.
Assay type: cell-based, Shigella flexneri
Method in brief: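 Broth microdilution was used throughout. UPEC, P. aeruginosa and S. aureus were tested in CA-MHB buffered with 40 mM HEPES (pH 7.4); UPEC was additionally tested in LPM with 30 mM MES (pH 5.5). S. flexneri was grown in TSB. All determinations were run in triplicate.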

With `N[C@@H]1CN(c2c(F)cc3c(=O)c(C(=O)O)cn([C@@H]4C[C@@H]4F)c3c2Cl)CC12CC2` [Sitafloxacin] the “MIC (μM) TSB” value was 0.01562 µM (≈ 6.4 ng/mL).

Same assay, conditions: Shigella flexneri, 5AM90T, read-out: MIC (μM) TSB

`NC1CCN(c2nc3c(cc2F)c(=O)c(C(=O)O)cn3-c2ccc(F)cc2F)C1` (centres unmarked) [Tosufloxacin] and `NC1CCN(c2c(F)cc3c(=O)c(C(=O)O)cn(C4CC4)c3c2Cl)C1` (centres unmarked) [Clinafloxacin] are the same in MIC: 0.0156 µM (≈ 6.32 ng/mL) for the first, 0.0156 µM (≈ 5.72 ng/mL) for the second.

In the case of `COc1c(N2CCNC(C)C2)c(F)cc2c(=O)c(C(=O)O)cn(C3CC3)c12` (centres unmarked) [Gatifloxacin], the MIC is reported as 0.0312 µM (≈ 11.7 ng/mL).
